What was measured:
Type in all cases: cell-based, human
osteosarcoma cells (HOS) = assay: Cell viability test, trypan blue staining and counting in Neubauer chamber; details: for morphological changes: 0.5 μM simvastatin, 50 nM methotrexate or both, 48 and 72 hours; for effect on cell proliferation and cell death (trypan blue counts): FIGS. 6-10
Procedure: The HOS cells are cultivated in a culture medium supplemented with 5-10% heat-inactivated foetal bovine serum and 2 mM of L-glutamine, at 37° C., 95% humidity and 5% atmospheric CO2. The cells are treated with 0.5 μM of simvastatin and with 50 nM of MTX for 24, 48 and 72 hours. The cells are collected by trypsinization. This involves first aspirating the cultivation medium; the cells are then washed with 2-3 mL of PBS (sterile); add 0.5-1 mL of trypsin-EDTA solution (sterile); incubated at 37° for 5 minutes; the cells are collected with 5 mL of fresh culture medium; and the suspension is placed in a sterile 15 mL tube. The trypan blue dye is used in order to determine cell viability. Trypan blue is a colloid that enters the cells through breaks in the cell membrane. Therefore, the cells that appear in the image, clearly stained blue, are considered to be non-viable. For the measurement, mix 50 μL of the trypan blue solution and 50 μL of cell suspension are placed in a 1.5 mL tube. The mixture is homogenised and 10 μL placed in a Neubauer chamber. The total cells and the non-viable cells (completely stained blue) are counted.

HOS cells [1] = assay: Apoptosis testing by flow cytometry (SubG0 peak); details: 48 hours
HOS cells [2] = assay: Analysis of the cell cycle by flow cytometry (PI); details: for changes in the distribution of the cell cycle (summary): FIGS. 11-15; for changes in the cell cycle with increasing doses: MTX 10-200 nM or SV 0.2-10 μM
Procedure: In order to analyse the changes in the distribution of the cell cycle the cells are seeded and treated under the same conditions employed with the Annexin V dye. The treated and untreated cells are resuspended in NP-40 at 1% dissolved in PBS additionally containing 50 μg/mL PI at a density of 3×10^5 cells/sample. The analysis and quantification of each of the experimental conditions is then carried out after 15 minutes incubation in the dark and at ambient temperature, following the same methodology as employed in the apoptosis experiments with Annexin-V staining (FACSCalibur flow cytometry and Cell Quest software).

[3] = HOS cells, SV 1 μM alone, 24 hours

| Structure (SMILES) | morphological changes (osteosarcoma cells (HOS)) | effect on cell proliferation and cell death (trypan blue counts) (osteosarcoma cells (HOS)) | SV concentration at appearance of the SubG0 peak (cell death by apoptosis) (HOS cells [1]; SV 0.2-10 μM tested) [µM] | SV concentration at maximum of the SubG0 peak (HOS cells [1]; SV 0.2-10 μM tested) [µM] | number of cells quantified in the SubG0 phase (HOS cells [1]; doses above 0.2 μM SV) | changes in the distribution of the cell cycle (summary) (HOS cells [2]) | changes in the cell cycle with increasing doses (HOS cells [2]; HOS cells, 24 hours) | decrease of the G1 phase compared to the control (HOS cells [2]; [3]) [%] | increase of cells in the G2/M phase compared to the control (HOS cells [2]; [3]) [%] | MTX concentration at incipient appearance of the SubG0 peak (cell death by apoptosis) (HOS cells [1]; MTX 10-200 nM tested) [NM] | number of cells quantified in the SubG0 phase (HOS cells [1]; doses above 50 nM of MTX) |
| --- | --- | --- | --- | --- | --- | --- | --- | --- | --- | --- | --- |
| CCC(C)(C)C(=O)O[C@H]1C[C@@H](C)C=C2C=C[C@H](C)[C@H](CC[C@@H]3C[C@@H](O)CC(=O)O3)[C@H]21 [SV, simvastatin] | rounded cells | predominant effect on the induction of cell death | < 0.2 | 10 | notable increase | halts the cycle in phase G2/M | decrease in the S phase and in the number of cells in phase G1 is notable, with subsequent accumulation in the phase G2/M | 19.60 | 40.92 |  |  |
| CN(Cc1cnc2nc(N)nc(N)c2n1)c1ccc(C(=O)N[C@@H](CCC(=O)O)C(=O)O)cc1 [MTX, (2S)-2-[(4-{[(2,4-diaminopteridin-6-yl)methyl](methyl)amino}benzoyl)amino]pentanedioic acid] | enlarged cells and even those with two nuclei | preferentially acts to slow cell proliferation |  |  |  | halt in the cycle in phase G1 | decrease in the S phase and in the number of cells in phase G2/M, with subsequent accumulation in the phase G1 |  |  | 20 | significant increase |

From patent US10172857B2, “Boosting the effect of methotrexate through the combined use with lipophilic statins” (Dalana3, S.L., priority 2013, dated 2019)
